The record followed here is publication PMC8689648, “Binding Affinity Determines Substrate Specificity and Enables Discovery of Substrates for N-Myristoyltransferases” (ACS Catalysis, 2021).

Where two headings read alike, the source gives them in different places.

Assay [1] has as its target T1, N-myristoyltransferase 1 (NMT1) (Homo sapiens, UniProt P30419).
T1 sequence (P30419 1-496): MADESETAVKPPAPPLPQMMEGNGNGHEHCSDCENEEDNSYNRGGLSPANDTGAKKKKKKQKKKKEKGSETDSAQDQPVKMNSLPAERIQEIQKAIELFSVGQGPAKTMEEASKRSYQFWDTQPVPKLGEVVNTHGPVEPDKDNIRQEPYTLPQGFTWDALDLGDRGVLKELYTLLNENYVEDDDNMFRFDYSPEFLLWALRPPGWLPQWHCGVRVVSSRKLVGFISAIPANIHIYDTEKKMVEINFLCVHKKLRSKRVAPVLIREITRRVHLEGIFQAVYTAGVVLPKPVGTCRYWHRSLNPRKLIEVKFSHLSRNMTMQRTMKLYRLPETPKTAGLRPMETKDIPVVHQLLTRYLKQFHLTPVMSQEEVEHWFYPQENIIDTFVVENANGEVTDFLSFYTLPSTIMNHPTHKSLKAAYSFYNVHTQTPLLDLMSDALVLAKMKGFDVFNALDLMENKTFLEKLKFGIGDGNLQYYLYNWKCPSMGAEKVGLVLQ
Put plainly: steady-state kinetics with ARF6 peptide (HPLC, MS); Kia from ordered Bi-Bi global fit. The assay is classed as biochemical.

The target in assay [2] is T1, N-myristoyltransferase 1 (NMT1). Put plainly: steady-state inhibition kinetics of myristoylation of ARF6 peptide (HPLC), recombinant NMT1. The class given is biochemical.
Assay [3] has the same target. Put plainly: steady-state inhibition kinetics of acetylation of ARF6 peptide (HPLC), recombinant NMT1. The class given is biochemical.
The target of assay [4] is T2, human N-myristoyltransferase 1 (NMT1) (human) (UniProt P30419).
T2 sequence: T1 sequence (P30419 1-496)

`CC(=O)SCCNC(=O)CCNC(=O)[C@H](O)C(C)(C)COP(=O)(O)OP(=O)(O)OC[C@H]1O[C@@H](n2cnc3c(N)ncnc32)[C@H](O)[C@@H]1OP(=O)(O)O` [Ac-CoA, acetyl-CoA]: the Kd in assay [1] (read-out: Kia) was 2400 ± 500 nM.

The molecule `CCCCCCCCCCCCCC(=O)SCCNC(=O)CCNC(=O)[C@H](O)C(C)(C)COP(=O)(O)OP(=O)(O)OC[C@H]1O[C@@H](n2cnc3c(N)ncnc32)[C@H](O)[C@@H]1OP(=O)(O)O` [Myr-CoA, myristoyl-CoA] yielded a Kd in assay [1] of 200 ± 100 nM.

As for `CCCCCCCCCCCCCC(=O)CSCCNC(=O)CCNC(=O)[C@H](O)C(C)(C)COP(=O)(O)OP(=O)(O)OC[C@H]1O[C@@H](n2cnc3c(N)ncnc32)[C@H](O)[C@@H]1OP(=O)(O)O` [S-(2-oxo)pentadecyl-CoA], in assay [2], the inhibition constant (Ki) (usually a dissociation constant, usually derived from enzyme kinetics or from competition with a known ligand) stood at 14.7 ± 2.2 nM.

`CC(=O)CSCCNC(=O)CCNC(=O)[C@H](O)C(C)(C)COP(=O)(O)OP(=O)(O)OC[C@H]1O[C@@H](n2cnc3c(N)ncnc32)[C@H](O)[C@@H]1OP(=O)(O)O` [S-acetonyl-CoA]: the inhibitory constant (Ki) in assay [3] is 10100 ± 2200 nM.

B1: ARF6 N-terminal peptide (…) (peptide)
peptide: GKVLSKIFWW
In assay [4], B1 registered a Kpep (Michaelis constant Km for ARF6 peptide) of NMT1-catalysed acetylation, Ac-CoA as the first substrate; 50 mM TriCl pH 8.0, 37 °C of 40 μM and a Kpep (Michaelis constant Km for ARF6 peptide) of NMT1-catalysed myristoylation, Myr-CoA as the first substrate; 50 mM TriCl pH 8.0, 37 °C of 5 μM.
